Data from patent US20100168102A9, “Amide Derivatives as Kinase Inhibitors” (Devgen NV, priority 2005, published 2010).
Like-named read-outs stand apart in the source and are kept apart here.

Key:
PKC epsilon = molecular target: T1, PKC epsilon (Homo sapiens, UniProt Q02156); experiment: Biochemical assay for PKC epsilon (fluorescence polarization, Protein Kinase C Assay Kit, Red); details: Table 2, compounds of Formula XIII
T1 construct: purchased Invitrogen P2282
T1 sequence (Q02156 1-737): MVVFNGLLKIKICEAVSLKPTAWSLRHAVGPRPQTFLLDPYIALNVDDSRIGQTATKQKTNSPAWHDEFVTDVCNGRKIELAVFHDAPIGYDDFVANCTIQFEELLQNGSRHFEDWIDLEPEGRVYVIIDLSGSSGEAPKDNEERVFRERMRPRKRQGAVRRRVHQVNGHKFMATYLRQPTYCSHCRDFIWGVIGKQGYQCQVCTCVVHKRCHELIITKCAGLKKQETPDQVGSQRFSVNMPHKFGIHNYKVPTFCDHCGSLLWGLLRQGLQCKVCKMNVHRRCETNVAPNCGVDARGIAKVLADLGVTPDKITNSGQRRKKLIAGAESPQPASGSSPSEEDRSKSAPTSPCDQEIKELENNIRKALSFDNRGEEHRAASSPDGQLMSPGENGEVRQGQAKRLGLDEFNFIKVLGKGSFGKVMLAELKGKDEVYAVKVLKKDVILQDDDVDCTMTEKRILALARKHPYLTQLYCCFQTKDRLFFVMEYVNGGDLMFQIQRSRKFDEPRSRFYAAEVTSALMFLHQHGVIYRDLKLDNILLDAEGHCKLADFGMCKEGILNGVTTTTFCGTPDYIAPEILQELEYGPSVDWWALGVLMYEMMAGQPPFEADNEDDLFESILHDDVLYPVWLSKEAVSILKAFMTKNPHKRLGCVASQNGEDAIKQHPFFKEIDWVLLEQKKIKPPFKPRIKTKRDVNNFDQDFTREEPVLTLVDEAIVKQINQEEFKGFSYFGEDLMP
In short: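 Read-out was fluorescence-polarization competition between phosphorylated substrate and a rhodamine PKC tracer for an anti-phosphoserine antibody, added with EDTA stop after an 80 min room-temperature kinase reaction with ATP and protein substrate (Mg2+/Ca2+ buffer). Enzyme (10 ng/ml final) was preincubated with compound for 30 min.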

human ROCKα/ROCKII mix = molecular target: T2, human ROCKα/ROCKII mix (Homo sapiens, UniProt O75116); experiment: Biochemical assay for ROCK (fluorescence polarization, ROCK IMAP Kit); details: Table 2, compounds of Formula XIII
T2 construct: purchased Upstate Biotechnology 14-451
T2 sequence (O75116 11-552 limits assumed): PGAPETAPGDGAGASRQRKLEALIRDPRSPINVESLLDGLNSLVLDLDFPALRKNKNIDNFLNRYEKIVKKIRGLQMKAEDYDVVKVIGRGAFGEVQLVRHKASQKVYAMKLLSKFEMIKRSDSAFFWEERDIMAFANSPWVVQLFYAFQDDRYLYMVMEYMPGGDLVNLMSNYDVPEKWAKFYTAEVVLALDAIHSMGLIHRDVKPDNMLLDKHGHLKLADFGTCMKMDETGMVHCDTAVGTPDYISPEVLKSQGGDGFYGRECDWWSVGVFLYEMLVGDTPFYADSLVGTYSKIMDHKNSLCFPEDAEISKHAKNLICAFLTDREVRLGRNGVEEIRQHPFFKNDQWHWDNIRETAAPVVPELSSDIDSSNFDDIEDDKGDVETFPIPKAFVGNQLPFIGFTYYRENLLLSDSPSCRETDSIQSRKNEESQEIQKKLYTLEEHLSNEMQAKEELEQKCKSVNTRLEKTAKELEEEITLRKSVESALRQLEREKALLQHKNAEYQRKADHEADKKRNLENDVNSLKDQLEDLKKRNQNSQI

Compound	IC50 (PKC epsilon; read-out: IC50 μM PKCε) [µM]	IC50 (human ROCKα/ROCKII mix) [µM]	IC50 (PKC epsilon; IC50 μM PKCε) [µM]
NC(CNC(=O)c1c[nH]cn1)c1ccc(C(=O)Nc2ccncc2)cc1 (centres unmarked) [Compound 122, 1H-Imidazole-4-carboxylic acid {2-amino-2-[4-(pyridin-4-ylcarbamoyl)-phenyl]-ethyl}-amide]	5 to 50	0.5 to 5	–
Nc1c(C(=O)NCC(N)c2ccc(C(=O)Nc3ccncc3)cc2)cnn1-c1ccc(F)cc1 (centres unmarked) [Compound 123, 5-Amino-1-(4-fluorophenyl)-1H-pyrazole-4-carboxylic acid {2-amino-2-[4-(pyridin-4-ylcarbamoyl)-phenyl]-ethyl}-amide]	5 to 50	0.5 to 5	–
NC(CNC(=O)c1csc(-c2ccccc2)n1)c1ccc(C(=O)Nc2ccncc2)cc1 (centres unmarked) [Compound 124, 2-Phenyl-thiazole-4-carboxylic acid {2-amino-2-[4-(pyridin-4-ylcarbamoyl)-phenyl]-ethyl}-amide]	5 to 50	0.5 to 5	–
NC(CNC(=O)c1csc(Nc2ccc(F)cc2)n1)c1ccc(C(=O)Nc2ccncc2)cc1 (centres unmarked) [Compound 125, 2-(4-Fluoro-phenylamino)-thiazole-4-carboxylic acid {2-amino-2-[4-(pyridin-4-ylcarbamoyl)phenyl]-ethyl}-amide]	0.5 to 5	0.5 to 5	–
Cc1nc(-c2ccccc2)sc1C(=O)NCC(N)c1ccc(C(=O)Nc2ccncc2)cc1 (centres unmarked) [Compound 126, 4-Methyl-2-Phenyl-thiazole-5-carboxylic acid {2-amino-2-[4-(pyridin-4-ylcarbamoyl)-phenyl]-ethyl}-amide]	5 to 50	0.5 to 5	–
NC(CNC(=O)c1ccc2[nH]nnc2c1)c1ccc(C(=O)Nc2ccncc2)cc1 (centres unmarked) [Compound 127, 1H-Benzotriazole-5-carboxylic acid {2-amino-2-[4-(pyridin-4-ylcarbamoyl)-phenyl]-ethyl}-amide]	5 to 50	0.5 to 5	–
COc1ccc2[nH]c(C(=O)NCC(N)c3ccc(C(=O)Nc4ccncc4)cc3)cc2c1 (centres unmarked) [Compound 128, 5-Methoxy-1H-indole-2-carboxylic acid {2-amino-2-[4-(pyridin-4-ylcarbamoyl)-phenyl]-ethyl}-amide]	5 to 50	0.5 to 5	–
NC(CNC(=O)c1cc2cc(F)ccc2[nH]1)c1ccc(C(=O)Nc2ccncc2)cc1 (centres unmarked) [Compound 129, 5-Fluoro-1H-indole-2-carboxylic acid {2-amino-2-[4-(pyridin-4-ylcarbamoyl)-phenyl]-ethyl}-amide]	5 to 50	0.5 to 5	–
NC(CNC(=O)c1cc2ccccc2[nH]1)c1ccc(C(=O)Nc2ccncc2)cc1 (centres unmarked) [Compound 130, 1H-Indole-2-carboxylic acid {2-amino-2-[4-(pyridin-4-ylcarbamoyl)-phenyl]-ethyl}-amide]	5 to 50	0.5 to 5	–
NC(CNC(=O)c1ccc2cc[nH]c2c1)c1ccc(C(=O)Nc2ccncc2)cc1 (centres unmarked) [Compound 131, 1H-Indole-6-carboxylic acid {2-amino-2-[4-(pyridin-4-ylcarbamoyl)-phenyl]-ethyl}-amide]	5 to 50	0.5 to 5	–
NC(CNC(=O)c1ccc2[nH]ccc2c1)c1ccc(C(=O)Nc2ccncc2)cc1 (centres unmarked) [Compound 132, 1H-Indole-5-carboxylic acid {2-amino-2-[4-(pyridin-4-ylcarbamoyl)-phenyl]-ethyl}-amide]	0.5 to 5	0.05 to 0.5	–
COc1cccc2cc(C(=O)NCC(N)c3ccc(C(=O)Nc4ccncc4)cc3)oc12 (centres unmarked) [Compound 133, 7-Methoxy-benzofuran-2-carboxylic acid {2-amino-2-[4-(pyridin-4-ylcarbamoyl)-phenyl]-ethyl}-amide]	5 to 50	0.05 to 0.5	–
NC(CNC(=O)c1cc2cc(Cl)ccc2o1)c1ccc(C(=O)Nc2ccncc2)cc1 (centres unmarked) [Compound 134, 5-Chloro-benzofuran-2-carboxylic acid {2-amino-2-[4-(pyridin-4-ylcarbamoyl)-phenyl]-ethyl}-amide]	5 to 50	0.5 to 5	–
NC(CNC(=O)C(c1ccccc1)C1CCCC1)c1ccc(C(=O)Nc2ccncc2)cc1 (centres unmarked) [Compound 136, 4-[1-Amino-2-(2-cyclopentyl-2-phenyl-acetylamino)-ethyl]-N-pyridin-4-yl-bennzamide]	5 to 50	0.5 to 5	–
NC(CNC(=O)C1(c2ccccc2)CC1)c1ccc(C(=O)Nc2ccncc2)cc1 (centres unmarked) [Compound 137, 4-{1-Amino-2-[(1-phenyl-cyclopropanecarbonyl)-amino]-ethyl}-N-pyridin-4-yl-benzamide]	0.05 to 0.5	0.5 to 5	–
NC(CNC(=O)Cc1ccc(-c2ccccc2)cc1)c1ccc(C(=O)Nc2ccncc2)cc1 (centres unmarked) [Compound 146, 4-[1-Amino-2-(2-biphenyl-4-yl-acetylamino)-ethyl]-N-pyridin-4-yl-benzamide]	5 to 50	0.5 to 5	–
NC(CNC(=O)Cc1ccccn1)c1ccc(C(=O)Nc2ccncc2)cc1 (centres unmarked) [Compound 150, 4-[1-Amino-2-(2-pyridin-2-yl-acetylamino)-ethyl]-N-pyridin-4-yl-benzamide]	5 to 50	0.5 to 5	–
NC(CNC(=O)Cc1c[nH]c2ccccc12)c1ccc(C(=O)Nc2ccncc2)cc1 (centres unmarked) [Compound 152, 4-[1-Amino-2-(2-1H-indol-3-yl-acetylamino)-ethyl]-N-pyridin-4-yl-benzamide]	0.5 to 5	0.05 to 0.5	–

Second part, the molecule after the results:

IC50 (PKC epsilon; read-out: IC50 μM PKCε) [µM]	IC50 (human ROCKα/ROCKII mix) [µM]	IC50 (PKC epsilon; IC50 μM PKCε) [µM]	Compound
5 to 50	0.5 to 5	–	NC(CNC(=O)Cc1ccc2ccccc2c1)c1ccc(C(=O)Nc2ccncc2)cc1 (centres unmarked) [Compound 135, 4-[1-Amino-2-(2-naphtalen-2-yl-acetylamino)-ethyl]-N-pyridin-4-yl-bennzamide]
5 to 50	0.5 to 5	–	COc1ccccc1CC(=O)NCC(N)c1ccc(C(=O)Nc2ccncc2)cc1 (centres unmarked) [Compound 138, 4-{1-amino-2-[2-(2-methoxy-phenyl)-acetylamino]-ethyl}-N-pyridin-4-yl-benzamide]
0.5 to 5	0.05 to 0.5	–	COc1cccc(CC(=O)NCC(N)c2ccc(C(=O)Nc3ccncc3)cc2)c1 (centres unmarked) [Compound 139, 4-{1-amino-2-[2-(3-methoxy-phenyl)-acetylamino]-ethyl}-N-pyridin-4-yl-benzamide]
5 to 50	0.05 to 0.5	–	COc1ccc(CC(=O)NCC(N)c2ccc(C(=O)Nc3ccncc3)cc2)cc1 (centres unmarked) [Compound 140, 4-{1-amino-2-[2-(4-methoxy-phenyl)-acetylamino]-ethyl}-N-pyridin-4-yl-benzamide]
5 to 50	0.05 to 0.5	–	NC(CNC(=O)Cc1ccc2c(c1)OCO2)c1ccc(C(=O)Nc2ccncc2)cc1 (centres unmarked) [Compound 141, 4-{1-amino-2-(2-benzo[1,3]dioxol-5-yl-acetylamino)-ethyl]-N-pyridin-4-yl-benzamide]
0.5 to 5	0.05 to 0.5	–	Cc1ccccc1CC(=O)NCC(N)c1ccc(C(=O)Nc2ccncc2)cc1 (centres unmarked) [Compound 142, 4-{1-Amino-2-[2-(2-methyl-phenyl)-acetylamino]-ethyl}-N-pyridin-4-yl-benzamide]
0.5 to 5	0.05 to 0.5	–	Cc1cccc(CC(=O)NCC(N)c2ccc(C(=O)Nc3ccncc3)cc2)c1 (centres unmarked) [Compound 143, 4-{1-Amino-2-[2-(3-methyl-phenyl)-acetylamino]-ethyl}-N-pyridin-4-yl-benzamide]
0.5 to 5	0.5 to 5	–	Cc1ccc(C)c(CC(=O)NCC(N)c2ccc(C(=O)Nc3ccncc3)cc2)c1 (centres unmarked) [Compound 144, 4-{1-Amino-2-[2-(2,5-dimethyl-phenyl)-aceylamino]-ethyl}-N-pyridin-4-yl-benzamide]
0.5 to 5	0.05 to 0.5	–	Cc1ccc(CC(=O)NCC(N)c2ccc(C(=O)Nc3ccncc3)cc2)cc1 (centres unmarked) [Compound 145, 4-{1-Amino-2-[2-(4-methyl-phenyl)-acetylamino]-ethyl}-N-pyridin-4-yl-benzamide]
0.5 to 5	0.05 to 0.5	–	NC(CNC(=O)Cc1cccc(Cl)c1)c1ccc(C(=O)Nc2ccncc2)cc1 (centres unmarked) [Compound 147, 4-{1-Amino-2-[2-(3-chloro-phenyl)-acetylamino]-ethyl}-N-pyridin-4-yl-benzamide]
0.05 to 0.5	0.05 to 0.5	–	NC(CNC(=O)Cc1ccc(F)cc1)c1ccc(C(=O)Nc2ccncc2)cc1 (centres unmarked) [Compound 148, 4-{1-Amino-2-[2-(4-fluoro-phenyl)-acetylamino]-ethyl}-N-pyridin-4-yl-benzamide]
–	0.5 to 5	0.5 to 5	NC(CNC(=O)Cc1c(F)cccc1F)c1ccc(C(=O)Nc2ccncc2)cc1 (centres unmarked) [Compound 149, 4-{1-Amino-2-[2-(2,6-difluororo-phenyl)-acetylamino]-ethyl}-N-pyridin-4-yl-benzamide]
5 to 50	0.5 to 5	–	NC(CNC(=O)Cc1ccncc1)c1ccc(C(=O)Nc2ccncc2)cc1 (centres unmarked) [Compound 151, 4-[1-Amino-2-(2-pyridin-4-yl-acetylamino)-ethyl]-N-pyridin-4-yl-benzamide]
